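1) Cells in 96-well plates. 2) Compound, 48 h, 5 concentrations. 3) Linear interpolation between surrounding doses. 4) Unreached endpoint = highest concentration. GI50 is the concentration that inhibits growth by half. Definition used: TGI = concentration required for complete inhibition of growth.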
How the values were obtained:
Assay in all cases: inhibition of tumour cell growth, NCI panel, 48 h
786-0 renal = tested on: 786-0 renal
ACHN renal = tested on: ACHN renal
IGROV1 ovarian = tested on: IGROV1 ovarian
NCI-H226 lung = tested on: NCI-H226 lung
NCI-H522 lung = tested on: NCI-H522 lung
OVCAR-3 ovarian = tested on: OVCAR-3 ovarian
SK-MEL-28 melanoma = tested on: SK-MEL-28 melanoma
U251 CNS = tested on: U251 CNS
UO-31 renal = tested on: UO-31 renal
HCT-15 colon = tested on: HCT-15 colon

Structure (SMILES)	TGI (786-0 renal) [µM]	TGI (ACHN renal) [µM]	TGI (IGROV1 ovarian) [µM]	TGI (NCI-H226 lung) [µM]	TGI (NCI-H522 lung) [µM]	TGI (OVCAR-3 ovarian) [µM]	TGI (SK-MEL-28 melanoma) [µM]	TGI (U251 CNS) [µM]	TGI (UO-31 renal) [µM]	TGI (HCT-15 colon) [µM]	GI50 (786-0 renal) [µM]	GI50 (ACHN renal) [µM]	GI50 (HCT-15 colon) [µM]	GI50 (IGROV1 ovarian) [µM]	GI50 (NCI-H522 lung) [µM]	GI50 (OVCAR-3 ovarian) [µM]	GI50 (SK-MEL-28 melanoma) [µM]	GI50 (U251 CNS) [µM]	GI50 (NCI-H226 lung) [µM]	GI50 (UO-31 renal) [µM]
NC(N)=NS(=O)(=O)c1ccc(NC(=O)c2cccn3c(=O)c4ccccc4nc23)cc1	> 100	> 100	> 100	> 100	> 100	> 100	> 100	> 100	> 100											
CCC1CCC2C3CC=C4CC(OC(C)=O)C(N)CC4(C)C3CCC12C (stereo not given)	3.79	17.6	18.2	39.7	6.67	10.5	10.4	3.68	9.68	12.5										
[O-]c1ccccc1[C-]=Nc1ccccc1O.[O-]c1ccccc1[C-]=Nc1ccccc1O.[O]=[U]=[O]	35.9	26.7	71		51.8	29.5	35.9	33.6		36.3	13.1	9.09	3.56	21.8	4.01	4.13	14	11.6		
CN1CCN2c3ccccc3CC(C#N)(C#N)C2C1 (stereo not given)	> 100	> 100	> 100	> 100	> 100	> 100	> 100	> 100	> 100	> 100										
CC/C=C\C[C@H](O)C/C=C1/C(=O)C=C[C@@H]1C/C=C\CCCC(=O)OCCS(=O)(=O)c1ccccc1	8.61	10.3	23.3	6.39	4.13	12	8.02	12.5	6.31	11.4	3.22	3.17	2.84	6.26	1.76	3.19	2.72	3.35	2.69	2.37
CC1(OCc2ccccc2)C(=O)N2C1N(C(=O)OCc1ccccc1)CC2(C)C (stereo not given)	> 100	> 100	> 100	> 100		> 100	> 100	> 100	> 100	> 100										
Nc1ncnc2c1ncn2C1OC(CO)CC1O (stereo not given)	45.8	> 100	> 100	> 100	38.7	> 100	> 100	> 100	> 100	83.3										
O=C1C2c3[nH]c4ccccc4c3C3CCC(c4ccccc4)CC3C2C(=O)N1c1ccccc1 (stereo not given)	> 100	> 100	> 100	> 100		> 100	> 100	> 100	> 100	> 100										
N#CC1=C(c2ccccc2)NN(Cc2ccccc2)C(c2ccc(Cl)cc2)CC1=O (stereo not given)	98.4	> 100		> 100	38.5		> 100	38.2		90.6										
CN(C)c1ccc(/C=N/NC(=O)CSc2nc3sc4c(c3c(=O)n2-c2ccccc2)CCCCC4)cc1	39.1	> 100	> 100	> 100	> 100	> 100	> 100	17.1	> 100	> 100	8.26	5.59	3.96	3.08	3.89	3.62	4.42	3.2	4.26	> 100
CC(=O)CC(=O)ON(C)C(C)=O	> 100	> 100	> 100	> 100	> 100	> 100	> 100	> 100	> 100											
CCOC(=O)NC(=O)c1cn(CC(=O)NCC(=O)NCC(=O)N2CCN(CCn3c(C)nc(C(N)=O)c3N)CC2)c(=O)[nH]c1=O	> 100	> 100	> 100				> 100	> 100	> 100	> 100										
Clc1cc2nc[nH]c2cc1Cl	> 100	> 100	> 100	> 100		> 100	> 100	> 100	> 100	> 100										
COc1ccc(-c2cc(=O)c3c(OC)c(O)c(OC)cc3o2)cc1	> 100	> 100	> 100	> 100	> 100	> 100	> 100	> 100	> 100	> 100										
COc1ccc(C(=C(C#N)C#N)c2ccc(OC)cc2)cc1	> 100	> 100	> 100	> 100	> 100	> 100	> 100	> 100	> 100	> 100										
OCC(O)C(O)C(O)c1nn[nH]n1 (stereo not given)	> 100	> 100	> 100	> 100	> 100	> 100		> 100	> 100	> 100										
Clc1cc(Cl)cc(C2SCc3nc4ccccc4n32)c1 (stereo not given)	32.4	69		37.3	39.3	38.3	36.1	34.2	43.5											
C/C(=N\NC(=O)C[n+]1ccccc1)c1sc(-c2nc(C)c(/C(C)=N/NC(=O)C[n+]3ccccc3)s2)nc1C	> 100	> 100	> 100	> 100		> 100	> 100	> 100	> 100	> 100										
CCCCCCCCCCCCCCCCCc1cc(Cl)nc(Cl)n1	> 100	> 100	> 100	> 100		> 100	> 100	> 100	> 100	> 100										

From PubChem BioAssay (NCI)
